# Measured values from paper PMC9150102 (Journal of Medicinal Chemistry, 2022).
# Legend:
# SERCA2a = target: T1, SERCA2a (Cavia porcellus, UniProt A0A286XFU8); assay: SERCA2a ATPase activity, Ca2+ dependency in cardiac SR microsomes from healthy guinea pigs; assay type: biochemical, guinea pig
# T1 construct: from tissue; host or cells: guinea pig left ventricle, SR-enriched microsomes
# Protocol: SERCA2a ATPase activity was assessed in SR preparations from healthy guinea pig hearts. Ca^2+ dependency of ATPase activity was measured, and kinetic parameters (KdCa and Vmax) were estimated at compound concentrations of 10 and 100 nM.
# […] […] Data are the mean ± SEM. *p < 0.05 (one-way RM ANOVA plus post hoc Tukey’s multiple comparisons or paired t-test).
# Measurements were performed in cardiac SR microsomes (guinea pig) and in whole tissue homogenates (rat). Cardiac preparations included SERCA2a and PLN. To test for PLN involvement in the effect of compounds, SERCA1 activity was measured in PLN-free microsomes (from guinea pig skeletal muscle) before and after reconstitution with the synthetic PLN1–32 inhibitory fragment at a ratio of 300:1 for PLN/SERCA. […] Either an increase in Vmax (rat) or a decrease in KdCa (increased Ca^2+ affinity) (guinea pig) stands for enhancement of SERCA function. […]
# Left ventricles (LV) were dissected from rat and guinea -pig of healthy and failing preparations and frozen until use. Tissues were homogenized, subjected to centrifugation to obtain SR -enriched microsomes and sarcomeric proteins were extracted, as previously described 4.
# In the case of guinea-pig hearts, LV tissues were homogenized in 4 volumes of 10 mM NaHCO3, 1 mM PMSF, 10 μg/ml aprotinin and leupeptin (pH 7) and centrifuged at 12,000g for 15 minutes. Supernatants were filtered and centrifuged at 100,000 g for 30 min. Contractile proteins were extracted by suspending the pellets with 0.6 M KCl, 30 mM histidine, pH 7 and further centrifugation at 100,000 g for 30 min.
# Final pellets were reconstituted with 0.3 M sucrose, 30 mM histidine, pH 7, to obtain SR-enriched […]
# SERCA2a ATPase activity was measured as the rate of 32P-ATP release at multiple Ca2+ concentrations (100-2000 nM) in the absence and presence of tested compounds, as previously described5. Increasing concentrations of each compound were pre-incubated with 2 μg of cardiac preparations for 5 min at 4° C in 80 μl of a solution containing 100 mM KCl, 5 mM MgCl2, 1 μM A23187, 20 mM Tris, pH 7.5. Then, 20 μl of 5 mM Tris-ATP containing 50 nCi of 32P-ATP (3-10 Ci/mmol, Perkin Elmer) were added. The ATP hydrolysis was continued for 15 min at 37°C and the reaction was stopped by acidification with 100 μl of 20% ice-cold perchloric acid. 32P was separated by centrifugation with activated charcoal (Norit A, Serva) and the radioactivity was measured. SERCA2a-dependent ATPase activity was identified as the portion of total hydrolytic activity inhibited by cyclopiazonic acid (CPA, 10 µM). Technical replicates were used to ensure the reliability of single values. […]
# [1] = target: T2, Na^+/K^+ ATPase-alpha1 isoform purified from dog kidneys (Canis lupus familiaris, UniProt P50997); design: method as in PMID 36153005; conditions: cited from earlier work
# T2 construct: excised from 1–3-year-old male beagle dogs; from tissue; host or cells: dog (beagle) kidney outer medulla, Jørgensen purification
# STZ diabetic rats = tested on: STZ diabetic rats; design: method as in PMID 36153005; conditions: cited from earlier work
# [2] = cited from earlier work
# [3] = Acute toxicity (LD50) in mice; conditions: male, Albino Swiss CD-1, mouse, in vivo, po
# Protocol: Acute toxicity (LD50) was preliminarily evaluated in mice following i.v. and oral drug administration.
# Control animals received the vehicle only.
# Drug toxicity studies in mice
# Acute toxicity was determined in CD1 mice. Separate mice groups were either orally treated, or
# intravenously injected, with increasing doses of the tested substance to identify the dose causing 50%
# mortality (LD50). Acute mortality was assessed at 30 min after compound administration; survival was
# T1 sequence (A0A286XFU8 entry or part of it): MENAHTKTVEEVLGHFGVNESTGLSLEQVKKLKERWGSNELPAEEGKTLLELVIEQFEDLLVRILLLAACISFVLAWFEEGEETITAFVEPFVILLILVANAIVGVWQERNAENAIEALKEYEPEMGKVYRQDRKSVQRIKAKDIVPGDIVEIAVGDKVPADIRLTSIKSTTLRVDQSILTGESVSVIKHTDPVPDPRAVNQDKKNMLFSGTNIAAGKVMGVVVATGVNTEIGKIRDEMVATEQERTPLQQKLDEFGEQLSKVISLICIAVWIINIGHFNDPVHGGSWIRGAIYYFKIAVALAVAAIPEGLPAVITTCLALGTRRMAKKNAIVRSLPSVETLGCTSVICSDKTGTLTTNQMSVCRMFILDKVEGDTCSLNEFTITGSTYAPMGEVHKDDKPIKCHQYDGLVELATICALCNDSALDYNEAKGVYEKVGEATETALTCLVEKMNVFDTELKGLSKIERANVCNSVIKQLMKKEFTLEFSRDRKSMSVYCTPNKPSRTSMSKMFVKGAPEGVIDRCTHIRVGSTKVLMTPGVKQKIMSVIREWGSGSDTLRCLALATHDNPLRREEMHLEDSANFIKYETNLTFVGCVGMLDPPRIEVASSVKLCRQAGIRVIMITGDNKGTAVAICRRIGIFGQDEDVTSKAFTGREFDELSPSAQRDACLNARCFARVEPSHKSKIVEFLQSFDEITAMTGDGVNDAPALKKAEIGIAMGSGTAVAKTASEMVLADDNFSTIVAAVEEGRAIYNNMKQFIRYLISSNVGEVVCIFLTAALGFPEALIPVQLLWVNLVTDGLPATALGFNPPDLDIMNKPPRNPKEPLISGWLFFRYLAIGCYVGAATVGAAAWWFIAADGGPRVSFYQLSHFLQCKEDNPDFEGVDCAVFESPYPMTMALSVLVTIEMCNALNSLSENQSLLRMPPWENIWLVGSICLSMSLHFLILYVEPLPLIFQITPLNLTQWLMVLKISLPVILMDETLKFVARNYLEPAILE
smiles,measurement,setting,value
"C[C@]12CC/C(=N\OCC(=O)O)C[C@@H]1[C@H](O)C[C@@H]1[C@@H]2CC[C@]2(C)C(=O)CC[C@@H]12 [PST3093, reference compound]",SERCA2a KdCa reduced by,SERCA2a; 1 nM,18%
same,SERCA2a KdCa change,"SERCA2a; 100 nM, guinea pig microsomal preparations",−25%
same,SERCA2a KdCa reduced by,"SERCA2a; 100 nM, guinea pig preparation",25%
same,activity against Na+/K+ ATPase,[1],inactive
same,systolic indexes,STZ diabetic rats,improved systolic indexes
same,half-life,[2],~10 h
same,LD50 at 24 h,[3],> 200 mg/kg
